Reference: patent US6358885B1, “Substituted phenylheterocyclic herbicides” (Mississippi State University, priority 1992, dated 2002)

Assays:
lambsquarters = experiment: Test C preemergence/postemergence greenhouse plant response rating 0 to 100; assay type: in vivo, Chenopodium album; settings: PREEMERGENCE; for Plant response rating Lambsquarters: 0 to 100 scale
Excerpt: (§1) The compounds evaluated in this test were formulated in a non-phytoxic solvent and applied to the soil surface before plant seedlings emerged (preemergence application), to water that covered the soil surface (flood application), and to plants that were in the one-to-four leaf stage (postemergence application). A sandy loam soil was used for the preemergence and postemergence tests, while a silt loam soil was used in the flood test. Water depth was approximately 2.5 cm for the flood test and was maintained at this level for the duration of the test. Plant species in the preemergence and postemergence tests consisted of barley (Hordeum vulgare), bedstraw (Galium aparine), blackgrass (Alopecurus myosuroides), chickweed (Stellaria media), corn (Zea mays), cotton (Gossypium hirsutum), crabgrass (Digitaria sanguinalis), downy brome (Bromus tectorum), giant foxtail (Setaria faberii), lambsquarters (Chenopodium album), morningglory (Ipomoea hederacea), pigweed ([…]), rape (Brassica napus), ryegrass (Lolium multiflorum), sorghum (Sorghum bicolor), soybean (Glycine max), speedwell (Veronica persica), sugar beet (Beta vulgaris), velvetleaf (Abutilon theophrasti), wheat (Triticum aestivum), wild buckwheat (Polygonum convolvulus), and wild oat (Avena fatua). All plant species were planted one day before application of the compound for the preemergence portion-of this test. Plantings of these species were adjusted to produce plants of appropriate size for the post-emergence portion of the test. […] All plant species were grown using normal greenhouse practices. Visual evaluations of injury expressed on treated plants, when compared to untreated controls, were recorded approximately fourteen to twenty one days after application of the test compound. […] A dash (-) response means no test result.

soybean = experiment: as above; assay type: in vivo, Glycine max; settings: PREEMERGENCE
Excerpt: as §1

cotton [1] = experiment: Test B preemergence/postemergence greenhouse plant response rating 0 to 10; assay type: in vivo, Gossypium hirsutum; settings: 0 to 10 scale
How it was run: (§2)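 Postemergence treatment of plants two to eighteen cm tall ran alongside preemergence treatment of planted seed, each using compound in a non-phytotoxic solvent.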

cotton [2] = experiment: Test C preemergence/postemergence greenhouse plant response rating 0 to 100; assay type: in vivo, Gossypium hirsutum; settings: PREEMERGENCE; for Plant response rating, Cotton: 0 to 100 scale
Excerpt: as §1

chickweed = experiment: as above; assay type: in vivo, Stellaria media; settings: PREEMERGENCE; for Plant response rating, Chickweed: 0 to 100 scale
Excerpt: as §1

giant foxtail [3] = experiment: as above; assay type: in vivo, Setaria faberii; settings: PREEMERGENCE; for Plant response rating, Giant foxtail: 0 to 100 scale
Excerpt: as §1

barley = experiment: as above; assay type: in vivo, Hordeum vulgare; settings: PREEMERGENCE; for Plant response rating Barley Igri: 0 to 100 scale
Excerpt: as §1

rape = experiment: Test B preemergence/postemergence greenhouse plant response rating 0 to 10; assay type: in vivo, Brassica napus; settings: 0 to 10 scale
How it was run: as §2

morningglory = experiment: as above; assay type: in vivo, Ipomoea hederacea; settings: 0 to 10 scale
How it was run: as §2

cocklebur = experiment: as above; assay type: in vivo, Xanthium pensylvanicum; settings: 0 to 10 scale
How it was run: as §2

bedstraw = experiment: as above; assay type: in vivo, Galium aparine; settings: 0 to 10 scale
How it was run: as §2

pigweed = experiment: Test C preemergence/postemergence greenhouse plant response rating 0 to 100; assay type: in vivo, Amaranthusretroflexus; settings: PREEMERGENCE; for Plant response rating Pigweed: 0 to 100 scale
Excerpt: as §1

giant foxtail [4] = experiment: Test B preemergence/postemergence greenhouse plant response rating 0 to 10; assay type: in vivo, Setaria faberii; settings: 0 to 10 scale
How it was run: as §2

cheatgrass = experiment: as above; assay type: in vivo, Bromus secalinus; settings: 0 to 10 scale
How it was run: as §2

velvetleaf = experiment: Test C preemergence/postemergence greenhouse plant response rating 0 to 100; assay type: in vivo, Abutilon theophrasti; settings: PREEMERGENCE
Excerpt: as §1

crabgrass = experiment: Test B preemergence/postemergence greenhouse plant response rating 0 to 10; assay type: in vivo, Digitaria spp.; settings: 0 to 10 scale
How it was run: as §2

CCCN1C(=O)COc2cc(F)c(-c3nn4c(c3Br)CCCC4)cc21 [Compound 63]
Plant response rating Lambsquarters (lambsquarters; 62 g/ha): 95
Plant response rating Lambsquarters (lambsquarters; 250 g/ha): 100
Plant response rating (0 to 100), Lambsquarters (lambsquarters; Rate 4 g/ha): 10
Plant response rating (0 to 100), Lambsquarters (lambsquarters; Rate 16 g/ha): 20
Plant response rating, Soybean (soybean; 250 g/ha, 0 to 100 scale): 20
Plant response rating (0 to 100), Soybean (soybean; Rate 4 g/ha): 0
Plant response rating (0 to 100), Soybean (soybean; Rate 16 g/ha): 0
Plant response rating, Cotton (cotton [1]; POSTEMERGENCE, Rate 10 g/ha): 9
Plant response rating, Cotton (cotton [1]; POSTEMERGENCE, Rate 50 g/ha): 10
Plant response rating, Cotton (cotton [1]; PREEMERGENCE, Rate 10 g/ha): 0
Plant response rating, Cotton (cotton [1]; PREEMERGENCE, Rate 50 g/ha): 2
Plant response rating, Cotton (cotton [2]; 62 g/ha): 20
Plant response rating, Cotton (cotton [2]; 250 g/ha): 70
Plant response rating (0 to 100), Cotton (cotton [2]; Rate 4 g/ha): 0
Plant response rating (0 to 100), Cotton (cotton [2]; Rate 16 g/ha): 0
Plant response rating, Chickweed (chickweed; 62 g/ha): 30
Plant response rating, Chickweed (chickweed; 250 g/ha): 50
Plant response rating (0 to 100), Chickweed (chickweed; Rate 4 g/ha): 10
Plant response rating (0 to 100), Chickweed (chickweed; Rate 16 g/ha): 20
Plant response rating, Giant foxtail (giant foxtail [3]; 62 g/ha): 20
Plant response rating, Giant foxtail (giant foxtail [3]; 250 g/ha): 75
Plant response rating (0 to 100), Giant foxtail (giant foxtail [3]; Rate 4 g/ha): 0
Plant response rating (0 to 100), Giant foxtail (giant foxtail [3]; Rate 16 g/ha): 0
Plant response rating Barley Igri (barley; 62 g/ha): 10
Plant response rating Barley Igri (barley; 250 g/ha): 40
Plant response rating (0 to 100), Barley Igri (barley; Rate 4 g/ha): 0
Plant response rating (0 to 100), Barley Igri (barley; Rate 16 g/ha): 0
Plant response rating, Rape (rape; POSTEMERGENCE, Rate 10 g/ha): 9
Plant response rating, Rape (rape; POSTEMERGENCE, Rate 50 g/ha): 9
Plant response rating, Rape (rape; PREEMERGENCE, Rate 50 g/ha): 6
Plant response rating, Morningglory (morningglory; POSTEMERGENCE, Rate 10 g/ha): 8
Plant response rating, Morningglory (morningglory; POSTEMERGENCE, Rate 50 g/ha): 10
Plant response rating, Morningglory (morningglory; PREEMERGENCE, Rate 50 g/ha): 0
Plant response rating, Cocklebur (cocklebur; POSTEMERGENCE, Rate 10 g/ha): 8
Plant response rating, Cocklebur (cocklebur; POSTEMERGENCE, Rate 50 g/ha): 9
Plant response rating, Cocklebur (cocklebur; PREEMERGENCE, Rate 10 g/ha): 0
Plant response rating, Cocklebur (cocklebur; PREEMERGENCE, Rate 50 g/ha): 0
Plant response rating, Bedstraw (bedstraw; POSTEMERGENCE, Rate 10 g/ha): 6
Plant response rating, Bedstraw (bedstraw; POSTEMERGENCE, Rate 50 g/ha): 8
Plant response rating, Bedstraw (bedstraw; PREEMERGENCE, Rate 10 g/ha): 4
Plant response rating, Bedstraw (bedstraw; PREEMERGENCE, Rate 50 g/ha): 10
Plant response rating Pigweed (pigweed; 62 g/ha): 100
Plant response rating Pigweed (pigweed; 250 g/ha): 100
Plant response rating (0 to 100), Pigweed (pigweed; Rate 4 g/ha): 0
Plant response rating (0 to 100), Pigweed (pigweed; Rate 16 g/ha): 100
Plant response rating, Giant foxtail (giant foxtail [4]; POSTEMERGENCE, Rate 10 g/ha): 3
Plant response rating, Giant foxtail (giant foxtail [4]; POSTEMERGENCE, Rate 50 g/ha): 3
Plant response rating, Giant foxtail (giant foxtail [4]; PREEMERGENCE, Rate 10 g/ha): 0
Plant response rating, Giant foxtail (giant foxtail [4]; PREEMERGENCE, Rate 50 g/ha): 1
Plant response rating, Cheatgrass (cheatgrass; POSTEMERGENCE, Rate 10 g/ha): 4
Plant response rating, Cheatgrass (cheatgrass; POSTEMERGENCE, Rate 50 g/ha): 4
Plant response rating, Cheatgrass (cheatgrass; PREEMERGENCE, Rate 10 g/ha): 2
Plant response rating, Cheatgrass (cheatgrass; PREEMERGENCE, Rate 50 g/ha): 2
Plant response rating, Velvetleaf (velvetleaf; 250 g/ha, 0 to 100 scale): 100
Plant response rating (0 to 100), Velvetleaf (velvetleaf; Rate 4 g/ha): 0
Plant response rating (0 to 100), Velvetleaf (velvetleaf; Rate 16 g/ha): 20
Plant response rating, Crabgrass (crabgrass; POSTEMERGENCE, Rate 10 g/ha): 3
Plant response rating, Crabgrass (crabgrass; POSTEMERGENCE, Rate 50 g/ha): 3
Plant response rating, Crabgrass (crabgrass; PREEMERGENCE, Rate 10 g/ha): 0
Plant response rating, Crabgrass (crabgrass; PREEMERGENCE, Rate 50 g/ha): 0
